This is an account of results in patent US10611740B2, “Aryl dihydro-2H-benzo[b][1,4]oxazine sulfonamide and related compounds for use as agonists of RORγ and the treatment of disease” (Lycera Corporation, priority 2015, dated 2020).

Where only a bound is given, the exact number is not on record here.

The target in one assay is T1, Gal4-RORγ-LBD (Homo sapiens, UniProt P51449).
T1 construct: expressed in transfected cells; host or cells: HEK-293 cells (pcDNA3.1neo plasmid)
T1 sequence (P51449 269-508 limits assumed): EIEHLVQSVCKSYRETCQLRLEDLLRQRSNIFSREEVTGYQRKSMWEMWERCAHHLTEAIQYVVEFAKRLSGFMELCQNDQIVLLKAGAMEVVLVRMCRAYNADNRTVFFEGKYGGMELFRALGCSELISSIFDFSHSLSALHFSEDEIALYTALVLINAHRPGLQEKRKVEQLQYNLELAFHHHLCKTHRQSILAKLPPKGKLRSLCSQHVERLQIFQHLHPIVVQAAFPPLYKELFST
Nature of the assay: Gal4-RORγ Luciferase Reporter Assay in HEK-293T Cells. Type of assay: cell-based. Conditions: HEK-293 cells. An outline of the steps: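 In transfected HEK-293 cells (Gal4-RORγ-LBD, Gal4-luciferase), test agents with 2 μM ursolic acid were incubated overnight at 37 °C before luminescent detection. Values are relative to the ursolic-acid-free, compound-free signal (100).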

A further assay concerns the target T2, RORγ-LBD (Homo sapiens, UniProt P51449).
T2 construct: made in house; host or cells: SF9 cells (baculovirus)
T2 sequence (P51449 269-508 limits assumed): T1 sequence (P51449 269-508 limits assumed)
The experiment in a line: RORγ-Ligand Binding Domain (LBD) TR-FRET Assay.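 For TR-FRET Assay Max Response: 665/615 nm ratio relative to signal without ursolic acid or compound set at 100.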 Type of assay: biochemical. The method, boiled down: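 Lysate from SF9 cells expressing His-RORγ-LBD is diluted to about 3 nM final in 50 mM Tris pH 7.0 assay buffer. A biotin-tagged SRC1 LXXLL peptide goes in at 200 nM final, plus ursolic acid at 2 μM final. Test compounds carry 1% DMSO final; signal read by TR-FRET.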

[1] abbreviates: luciferase reporter, with 2 μM ursolic acid.

As for `CC(C)(C[C@H]1CN(S(=O)(=O)c2cccc(C(F)(F)F)c2)c2cc(-c3cccc(F)c3Cl)ccc2O1)C(=O)O` [Compound 32H, (S)-3-(6-(2-chloro-3-fluorophenyl)-4-((3-(trifluoromethyl)phenyl)sulfonyl)-3,4-dihydro-2H-benzo[b][1,4]oxazin-2-yl)-2,2-dimethylpropanoic acid], at Gal4-RORγ-LBD (setting [1]), the EC50 was 500 to 5000 nM and the “Gal4-RORγ Assay Max Response” value is “** (The symbol “**” indicates a value in the range of greater than 90 to 150)”. Besides, on RORγ-LBD, the concentration giving a half-maximal response (EC50) was less than 500 nM and the “TR-FRET Assay Max Response” value is given as “**** (The symbol “****” indicates a value greater than 200)”.

Consider `CC(C)(C[C@H]1CN(S(=O)(=O)c2cccc(C(F)(F)F)c2)c2cc(-c3cc(F)ccc3Cl)ccc2O1)C(=O)O` [Compound 32I, (S)-3-(6-(2-chloro-5-fluorophenyl)-4-((3-(trifluoromethyl)phenyl)sulfonyl)-3,4-dihydro-2H-benzo[b][1,4]oxazin-2-yl)-2,2-dimethylpropanoic acid], for which, at Gal4-RORγ-LBD (setting [1]), the EC50 is 500 to 5000 nM and the “Gal4-RORγ Assay Max Response” value is recorded as “*** (The symbol “***” indicates a value in the range of greater than 150 to 200)”. In addition, at RORγ-LBD, the EC50 was less than 500 nM and the “TR-FRET Assay Max Response” value is “**** (The symbol “****” indicates a value greater than 200)”.

In the case of `CC(C)(C[C@H]1CN(S(=O)(=O)c2cccc(C(F)(F)F)c2)c2cc(-c3cccc(F)c3F)ccc2O1)C(=O)O` [Compound 32K, (S)-3-(6-(2,3-difluorophenyl)-4-((3-(trifluoromethyl)-phenyl)sulfonyl)-3,4-dihydro-2H-benzo[b][1,4]oxazin-2-yl)-2,2-dimethylpropanoic acid], on Gal4-RORγ-LBD (setting [1]), the EC50 was less than 500 nM and the “Gal4-RORγ Assay Max Response” value was “** (The symbol “**” indicates a value in the range of greater than 90 to 150)”. Also, at RORγ-LBD, the EC50 was less than 500 nM and the “TR-FRET Assay Max Response” value is on record as “**** (The symbol “****” indicates a value greater than 200)”.

For `CC(C)(C[C@H]1CN(S(=O)(=O)c2cccc(C(F)(F)F)c2)c2cc(-c3cc(F)cc(F)c3)ccc2O1)C(=O)O` [Compound 32N, (S)-3-(6-(3,5-difluorophenyl)-4-((3-(trifluoromethyl)phenyl)-sulfonyl)-3,4-dihydro-2H-benzo[b][1,4]oxazin-2-yl)-2,2-dimethylpropanoic acid], on Gal4-RORγ-LBD (setting [1]), the EC50 was less than 500 nM and the “Gal4-RORγ Assay Max Response” value is “** (The symbol “**” indicates a value in the range of greater than 90 to 150)”. For the same compound, at RORγ-LBD, the EC50 was less than 500 nM and the “TR-FRET Assay Max Response” value was “*** (The symbol “***” indicates a value in the range of greater than 150 to 200)”.

Take `CC(C)(C[C@H]1CN(S(=O)(=O)c2cccc(C(F)(F)F)c2)c2cc(-c3cccc(C(F)(F)F)c3)ccc2O1)C(=O)O` [Compound 32O, (S)-2,2-dimethyl-3-(6-(3-(trifluoromethyl)phenyl)-4-((3-(trifluoromethyl)phenyl)sulfonyl)-3,4-dihydro-2H-benzo[b][1,4]oxazin-2-yl)propanoic acid]: at Gal4-RORγ-LBD (setting [1]), the EC50 is less than 500 nM and the “Gal4-RORγ Assay Max Response” value is reported as “* (The symbol “*” indicates a value in the range of 25 to 90)”. Besides, on RORγ-LBD, the EC50 is less than 500 nM and the “TR-FRET Assay Max Response” value is given as “**** (The symbol “****” indicates a value greater than 200)”.

In the case of `CC(C)(CC[C@H]1CN(S(=O)(=O)c2cccc(C(F)(F)F)c2)c2cc(-c3cccc(C(F)(F)F)n3)ccc2O1)C(=O)O` [Compound 32P, (S)-2,2-dimethyl-4-(4-((3-(trifluoromethyl)phenyl)sulfonyl)-6-(6-(trifluoromethyl)pyridin-2-yl)-3,4-dihydro-2H-benzo[b][1,4]oxazin-2-yl)butanoic acid], on Gal4-RORγ-LBD (setting [1]), the EC50 was less than 500 nM and the “Gal4-RORγ Assay Max Response” value is given as “** (The symbol “**” indicates a value in the range of greater than 90 to 150)”. Besides, on RORγ-LBD, the EC50 is less than 500 nM and the “TR-FRET Assay Max Response” value is recorded as “*** (The symbol “***” indicates a value in the range of greater than 150 to 200)”.

Regarding `COc1cc(OC)cc(-c2ccc3c(c2)N(S(=O)(=O)c2cccc(C(F)(F)F)c2)C[C@H](CC(C)(C)C(=O)O)O3)c1` [Compound 32Q, (S)-3-(6-(3,5-dimethoxyphenyl)-4-((3-(trifluoromethyl)phenyl)-sulfonyl)-3,4-dihydro-2H-benzo[b][1,4]oxazin-2-yl)-2,2-dimethylpropanoic acid], on Gal4-RORγ-LBD (setting [1]), the EC50 is less than 500 nM and the “Gal4-RORγ Assay Max Response” value is listed as “** (The symbol “**” indicates a value in the range of greater than 90 to 150)”. Moreover, at RORγ-LBD, the EC50 is less than 500 nM and the “TR-FRET Assay Max Response” value is recorded as “**** (The symbol “****” indicates a value greater than 200)”.

In the case of `CC(C)(C[C@H]1CN(S(=O)(=O)c2cccc(C(F)(F)F)c2)c2cc(-c3cc(Cl)cc(OC(F)F)c3)ccc2O1)C(=O)O` [Compound 32R, (S)-3-(6-(3-chloro-5-(difluoro-methoxy)phenyl)-4-((3-(trifluoro-methyl)phenyl)sulfonyl)-3,4-dihydro-2H-benzo[b][1,4]oxazin-2-yl)-2,2-dimethylpropanoic acid], on Gal4-RORγ-LBD (setting [1]), the EC50 was less than 500 nM and the “Gal4-RORγ Assay Max Response” value is on record as “** (The symbol “**” indicates a value in the range of greater than 90 to 150)”. Moreover, at RORγ-LBD, the EC50 was less than 500 nM and the “TR-FRET Assay Max Response” value is reported as “*** (The symbol “***” indicates a value in the range of greater than 150 to 200)”.

Take `COc1cc(S(=O)(=O)N2C[C@H](CCC(C)(C)C(=O)O)Oc3ccc(-c4cc(F)cc(OC)c4F)cc32)ccc1F` [Compound 32S, (S)-4-(6-(2,5-difluoro-3-methoxyphenyl)-4-((4-fluoro-3-methoxyphenyl)sulfonyl)-3,4-dihydro-2H-benzo[b][1,4]oxazin-2-yl)-2,2-dimethylbutanoic acid]: on Gal4-RORγ-LBD (2 μM ursolic acid), the 50% effective concentration (EC50) is less than 500 nM and the “Gal4-RORγ Assay Max Response” value is given as “** (The symbol “**” indicates a value in the range of greater than 90 to 150)”. Moreover, on RORγ-LBD, the concentration for a half-maximal effect (EC50) is less than 500 nM and the “TR-FRET Assay Max Response” value is “*** (The symbol “***” indicates a value in the range of greater than 150 to 200)”.

Turning to `CC(C)(CC[C@H]1CN(S(=O)(=O)c2cccc(OC(F)F)c2)c2cc(-c3cc(F)ccc3F)ccc2O1)C(=O)O` [Compound 32T, (S)-4-(4-((3-(difluoro-methoxy)phenyl)sulfonyl)-6-(2,5-difluorophenyl)-3,4-dihydro-2H-benzo[b][1,4]oxazin-2-yl)-2,2-dimethylbutanoic acid], on Gal4-RORγ-LBD (2 μM ursolic acid), the 50% effective concentration (EC50) was less than 500 nM and the “Gal4-RORγ Assay Max Response” value is “** (The symbol “**” indicates a value in the range of greater than 90 to 150)”. Further, at RORγ-LBD, the EC50 was less than 500 nM and the “TR-FRET Assay Max Response” value is listed as “*** (The symbol “***” indicates a value in the range of greater than 150 to 200)”.

Regarding `COc1cccc(-c2ccc3c(c2)N(S(=O)(=O)c2cccc(C(F)(F)F)c2)C[C@H](CC(C)(C)C(=O)O)O3)c1OC` [Compound 32V, (S)-3-(6-(2,3-dimethoxyphenyl)-4-((3-(trifluoromethyl)phenyl)-sulfonyl)-3,4-dihydro-2H-benzo[b][1,4]oxazin-2-yl)-2,2-dimethylpropanoic acid], on Gal4-RORγ-LBD (2 μM ursolic acid), the EC50 was less than 500 nM and the “Gal4-RORγ Assay Max Response” value was “** (The symbol “**” indicates a value in the range of greater than 90 to 150)”. At RORγ-LBD, the 50% effective concentration (EC50) was less than 500 nM and the “TR-FRET Assay Max Response” value is reported as “*** (The symbol “***” indicates a value in the range of greater than 150 to 200)”.

With `CC(C)(C[C@H]1CN(S(=O)(=O)c2cccc(C(F)(F)F)c2)c2cc(-c3cccc(Cl)c3)ccc2O1)C(=O)O` [Compound 32W, (S)-3-(6-(3-chlorophenyl)-4-((3-(trifluoromethyl)phenyl)sulfonyl)-3,4-dihydro-2H-benzo[b][1,4]-oxazin-2-yl)-2,2-dimethyl-propanoic acid], at Gal4-RORγ-LBD (2 μM ursolic acid), the EC50 is less than 500 nM and the “Gal4-RORγ Assay Max Response” value is “** (The symbol “**” indicates a value in the range of greater than 90 to 150)”. Besides, on RORγ-LBD, the concentration giving a half-maximal response (EC50) is less than 500 nM and the “TR-FRET Assay Max Response” value is on record as “*** (The symbol “***” indicates a value in the range of greater than 150 to 200)”.

On to `CC(C)(C[C@H]1CN(S(=O)(=O)c2cccc(C(F)(F)F)c2)c2cc(-c3cc(F)cc(F)c3F)ccc2O1)C(=O)O` [Compound 32X, (S)-2,2-dimethyl-3-(4-((3-(trifluoromethyl)phenyl)sulfonyl)-6-(2,3,5-trifluorophenyl)-3,4-dihydro-2H-benzo[b][1,4]oxazin-2-yl)propanoic acid], for which, at Gal4-RORγ-LBD (2 μM ursolic acid), the concentration for a half-maximal effect (EC50) is less than 500 nM and the “Gal4-RORγ Assay Max Response” value was “** (The symbol “**” indicates a value in the range of greater than 90 to 150)”. At RORγ-LBD, the EC50 was less than 500 nM and the “TR-FRET Assay Max Response” value is on record as “*** (The symbol “***” indicates a value in the range of greater than 150 to 200)”.

On to `CC(C)(C[C@H]1CN(S(=O)(=O)c2cccc(C(F)(F)F)c2)c2cc(-c3cc(F)cc(Cl)c3)ccc2O1)C(=O)O` [Compound 32Y, (S)-3-(6-(3-chloro-5-fluoro-phenyl)-4-((3-(trifluoromethyl)-phenyl)sulfonyl)-3,4-dihydro-2H-benzo[b][1,4]oxazin-2-yl)-2,2-dimethylpropanoic acid], for which, at Gal4-RORγ-LBD (2 μM ursolic acid), the 50% effective concentration (EC50) is less than 500 nM and the “Gal4-RORγ Assay Max Response” value is “** (The symbol “**” indicates a value in the range of greater than 90 to 150)”. On RORγ-LBD, the 50% effective concentration (EC50) was less than 500 nM and the “TR-FRET Assay Max Response” value is “*** (The symbol “***” indicates a value in the range of greater than 150 to 200)”.
